How the values were obtained:
Type in all cases: in vivo
Alopecurus myosuroides [1] = test: Pre-emergence herbicidal effect; conditions: scored visually after 3 weeks
Description: (§1) Seeds of monocotyledonous and dicotyledonous weed plants and crop plants are laid out in wood-fibre pots in sandy loam and covered with soil. The compounds according to the invention formulated in the form of wettable powders (WP) or as emulsion concentrates (EC) are then applied as aqueous suspension or emulsion at a water application rate of 600 to 800 I/ha (converted) with the addition of 0.2% wetting agent to the surface of the covering soil. After the treatment, the pots are placed in a greenhouse and kept under good growth conditions for the trial plants. The damage to the test plants is scored visually after a test period of 3 weeks by comparison with untreated controls (herbicidal activity in percent (%): 100% activity=the plants have died, 0% activity=like control plants).

Avena fatua [2] = test: Pre-emergence herbicidal effect; conditions: scored visually after 3 weeks
Description: as §1

Echinochloa crus-galli [3] = test: Pre-emergence herbicidal effect; conditions: scored visually after 3 weeks
Description: as §1

Lolium multiflorum [4] = test: Pre-emergence herbicidal effect; conditions: scored visually after 3 weeks
Description: as §1

Setaria viridis [5] = test: Pre-emergence herbicidal effect; conditions: scored visually after 3 weeks
Description: as §1

Alopecurus myosuroides [6] = test: Post-emergence herbicidal effect; conditions: assessed visually after about 3 weeks
Experimental: (§2) Seeds of monocotyledonous and dicotyledonous weed and crop plants are laid out in sandy loam in wood-fibre pots, covered with soil and cultivated in a greenhouse under good growth conditions. 2 to 3 weeks after sowing, the test plants are treated at the one-leaf stage. The compounds according to the invention, formulated in the form of wettable powders (WP) or as emulsion concentrates (EC), are then sprayed as aqueous suspension or emulsion at a water application rate of 600 to 800 I/ha (converted) with the addition of 0.2% of wetting agent onto the green parts of the plants. After the test plants have been left to stand in the greenhouse under optimal growth conditions for about 3 weeks, the action of the preparations is assessed visually in comparison to untreated controls (herbicidal action in percent (%): 100% activity=the plants have died, 0% activity=like control plants).

Amaranthus retroflexus = test: Post-emergence herbicidal effect; conditions: assessed visually after about 3 weeks
Experimental: as §2

Avena fatua [7] = test: Post-emergence herbicidal effect; conditions: assessed visually after about 3 weeks
Experimental: as §2

Echinochloa crus-galli [8] = test: Post-emergence herbicidal effect; conditions: assessed visually after about 3 weeks
Experimental: as §2

Lolium multiflorum [9] = test: Post-emergence herbicidal effect; conditions: assessed visually after about 3 weeks
Experimental: as §2

Setaria viridis [10] = test: Post-emergence herbicidal effect; conditions: assessed visually after about 3 weeks
Experimental: as §2

Cyperus esculentus = test: Pre-emergence herbicidal effect; conditions: 320 g a.i./ha, scored visually after 3 weeks
Description: as §1

Polygonum convolvulus = test: Post-emergence herbicidal effect; conditions: 80 g a.i./ha, assessed visually after about 3 weeks
Experimental: as §2

Row | SMILES | Herbicidal effect against [%] ALOMY (Alopecurus myosuroides [1]; 80 g a.i./ha) [%] | Herbicidal effect against [%] ALOMY (Alopecurus myosuroides [1]; 320 g a.i./ha) [%] | Herbicidal effect against [%] AVEFA (Avena fatua [2]; 80 g a.i./ha) [%] | Herbicidal effect against [%] AVEFA (Avena fatua [2]; 320 g a.i./ha) [%] | Herbicidal effect against [%] ECHCG (Echinochloa crus-galli [3]; 80 g a.i./ha) [%] | Herbicidal effect against [%] ECHCG (Echinochloa crus-galli [3]; 320 g a.i./ha) [%] | Herbicidal effect against [%] LOLMU (Lolium multiflorum [4]; 80 g a.i./ha) [%] | Herbicidal effect against [%] LOLMU (Lolium multiflorum [4]; 320 g a.i./ha) [%] | Herbicidal effect against [%] SETVI (Setaria viridis [5]; 80 g a.i./ha) [%] | Herbicidal effect against [%] SETVI (Setaria viridis [5]; 320 g a.i./ha) [%] | Herbicidal effect against [%] ALOMY (Alopecurus myosuroides [6]; 80 g a.i./ha) [%] | Herbicidal effect against [%] AMARE (Amaranthus retroflexus; 80 g a.i./ha) [%] | Herbicidal effect against [%] AVEFA (Avena fatua [7]; 80 g a.i./ha) [%] | Herbicidal effect against [%] ECHCG (Echinochloa crus-galli [8]; 20 g a.i./ha) [%] | Herbicidal effect against [%] ECHCG (Echinochloa crus-galli [8]; 80 g a.i./ha) [%] | Herbicidal effect against [%] LOLMU (Lolium multiflorum [9]; 20 g a.i./ha) [%] | Herbicidal effect against [%] LOLMU (Lolium multiflorum [9]; 80 g a.i./ha) [%] | Herbicidal effect against [%] SETVI (Setaria viridis [10]; 20 g a.i./ha) [%] | Herbicidal effect against [%] SETVI (Setaria viridis [10]; 80 g a.i./ha) [%] | Herbicidal effect against [%] CYPES (Cyperus esculentus) [%] | other results
1 | CC#Cc1cc(CC)c(C2=C(OC(=O)OCC)C3(CCCC(OCC)C3)NC2=O)c(CC)c1 (single isomer, unassigned) [Example P4] | 100 | 100 | 100 | 100 | 100 | 100 | 100 | 100 | 100 | 100 | 100 | 80 | 100 | 100 | 100 | 100 | 100 | 100 | 100 | – | –
2 | C#Cc1cc(C)c(C2=C(O)C3(CCCC(OCCCC)C3)NC2=O)c(C)c1 (centres unmarked) [Example D4] | – | – | – | – | – | 100 | – | 80 | – | 80 | – | – | – | – | – | – | – | – | – | 100 | –
3 | CC#Cc1cc(C)c(C2=C(O)C3(CCCC(OCCOC)C3)NC2=O)c(C)c1 (centres unmarked) [Example D6] | 100 | 100 | 100 | 100 | 100 | 100 | 100 | 100 | 100 | 100 | 100 | 80 | 100 | 100 | 100 | 100 | 100 | 100 | 100 | 90 | Herbicidal effect against [%] ALOMY (Alopecurus myosuroides [6]; 20 g a.i./ha): 100%; Herbicidal effect against [%] AMARE (Amaranthus retroflexus; 20 g a.i./ha): 80%; Herbicidal effect against [%] AVEFA (Avena fatua [7]; 20 g a.i./ha): 100%; Herbicidal effect against [%] POLCO (Polygonum convolvulus): 80%
4 | CC#Cc1cc(C)c(C2=C(O)C3(CCCC(OCCOC)C3)NC2=O)c(CC)c1 (centres unmarked) [Example D8] | 100 | 100 | 100 | 100 | 100 | 100 | 100 | 100 | 100 | 100 | 100 | – | 100 | 100 | 100 | 100 | 100 | 100 | 100 | 100 | Herbicidal effect against [%] ALOMY (Alopecurus myosuroides [6]; 20 g a.i./ha): 100%; Herbicidal effect against [%] AVEFA (Avena fatua [7]; 20 g a.i./ha): 100%
